In patent US8445501B2, “Substituted 7-carboxamido-pyrrolo[3,2-d]pyrimidines” (Takeda GmbH, priority 2008, dated 2013):

Biological target: T1, human PDE5 (Homo sapiens, UniProt O76074)
T1 construct: from tissue; host or cells: platelets from fresh blood of human donors (lysate, 10,000 g supernatant)
Assay: Inhibition of the type 5 phosphodiesterase (PDE5) activity, modified SPA test with platelet lysate
Assay type: biochemical
Conditions: PDE5 from human platelet lysate, 0.5 μM cGMP
Description: Method for Measuring Inhibition of the Type 5 Phosphodiesterase (PDE5) Activity:
As a source for human PDE5, platelets are used. For that purpose, 150 ml fresh blood from human donors anticoagulated with citrate [final concentration 0.3% (w/v)] is centrifuged at 200 g for 10 min to obtain the so-called platelet-rich-plasma (PRP) as a supernatant. 1/10 volume of ACD solution (85 mM Na3-citrate, 111 mM D-glucose, 71 mM citric acid, pH 4.4) is added to 9/10 volume of PRP. After centrifugation (1,400 g, 10 min) the cell pellet is resuspended in 3 ml homogenization buffer (NaCl 140 mM, KCl 3.8 mM, EGTA (ethylene glycol tetraacetic acid) 1 mM, MgCl2 1 mM, Tris-HCl 20 mM, beta-mercaptoethanol 1 mM, pH 8.2) plus protease-inhibitor mix giving rise to the final concentrations of 0.5 mM Pefablock (Roche), 10 μM Leupeptin, 5 μM Trypsininhibitor, 2 mM Benzamidin and 10 μM Pepstatin A. The suspension is sonified and thereafter centrifuged for 15 min at 10,000 g. The resulting supernatant (platelet lysate) is used for enzymatic testings.
PDE5A1 activity is inhibited by the compounds of the invention in a modified SPA (scintillation proximity assay) test, supplied by Amersham Biosciences (see procedural instructions “phosphodiesterase [3H]cAMP SPA enzyme assay, code TRKQ 7090”), carried out in 96-well microtitre plates (MTP's). The test volume is 100 μl and contains 20 mM Tris buffer (pH 7.4), 0.1 mg of BSA (bovine serum albumin)/ml, 5 mM Mg^2+, 1 μM motapizone, 10 nM PDE2 inhibitor 2-(3,4-dimethoxybenzyl)-7-[(1R,2R)-2-hydroxy-1-(2-phenylethyl)propyl]-5-methylimidazo[5,1-f][1,2,4]triazin-4(3H)-one, 0.5 μM cGMP (cyclic guanosine monophosphate) (including about 50,000 cpm of [3H]cGMP as a tracer), 1 μl of the respective compound dilution in dimethylsulfoxide (DMSO) and sufficient PDE5-containing platelet lysat (10,000×g supernatant, see above) to ensure that 10-20 wt % of the cGMP is converted under the said experimental conditions. […] After a preincubation of 5 min at 37° C., the reaction is started by adding the substrate (cGMP) and the assay is incubated for a further 15 min; after that, it is stopped by adding SPA beads (50 μl). In accordance with the manufacturer's instructions, the SPA beads had previously been resuspended in water, but are then diluted 1:3 (v/v) in water; the diluted solution also contains 3 mM […] (IBMX) to ensure a complete PDE activity stop. After the beads have been sedimented (>30 min), the MTP's are analyzed in commercially available luminescence detection de-vices. The corresponding IC50 values of the compounds for the inhibition of PDE activity are deter-mined from the concentration-effect curves by means of non-linear regression.

Compound	IC50
COc1ccc(OCC2CC2)c(-c2ncnc3c(C(=O)N[C@H]4CC[C@H](NC(C)=O)CC4)c[nH]c23)c1 [Example 63, trans-4-(2-Cyclopropylmethoxy-5-methoxy-phenyl)-5H-pyrrolo[3,2-d]pyrimidine-7-carboxylic acid (4-acetylamino-cyclohexyl)-amide]	0.912 nM
O=C(N[C@@H]1CCN(C(=O)C2CC2)C1)c1c[nH]c2c(-c3c(OCC4CC4)ccc4c3OCO4)ncnc12 [Example 16, 4-(5-Cyclopropylmethoxy-benzo[1,3]dioxol-4-yl)-5H-pyrrolo[3,2-d]pyrimidine-7-carboxylic acid [(R)-1-(1-cyclopropyl-methanoyl)-pyrrolidin-3-yl]amide]	0.389 nM
CCC(=O)N1CCC[C@@H](NC(=O)c2c[nH]c3c(-c4cc(OC)c(F)cc4OCC4CC4)ncnc23)C1 [Example 101, 4-(2-Cyclopropylmethoxy-4-fluoro-5-methoxy-phenyl)-5H-pyrrolo[3,2-d]pyrimidine-7-carboxylic acid ((R)-1-propionyl-piperidin-3-yl)-amide]	0.162 nM
CC(=O)N1CC(NC(=O)c2c[nH]c3c(-c4c(OCC5CC5)ccc5c4OCO5)ncnc23)C1 [Example 39, 4-(5-Cyclopropylmethoxy-benzo[1,3]dioxol-4-yl)-5H-pyrrolo[3,2-d]pyrimidine-7-carboxylic acid (1-acetyl-azetidin-3-yl)-amide]	0.776 nM
CC(=O)N[C@H]1CC[C@@H](NC(=O)c2c[nH]c3c(-c4c(OCC5CC5)ccc5c4OCO5)ncnc23)CC1 [Example 7, cis-4-(5-Cyclopropylmethoxy-benzo[1,3]dioxol-4-yl)-5H-pyrrolo[3,2-d]pyrimidine-7-carboxylic acid (4-acetylamino-cyclohexyl)-amide]	0.214 nM
COc1ccc(OCC2CC2)c(-c2ncnc3c(C(=O)N[C@H]4CC[C@H](NC(=O)C5CC5)CC4)c[nH]c23)c1 [Example 64, trans-4-(2-Cyclopropylmethoxy-5-methoxy-phenyl)-5H-pyrrolo[3,2-d]pyrimidine-7-carboxylic acid [4-(cyclopropanecarbonyl-amino)cyclohexyl]-amide]	0.603 nM

The remaining lines, values ahead:

IC50	Compound
0.251 nM	C[C@H](O)C(=O)N1CCCC(CNC(=O)c2c[nH]c3c(-c4c(OCC5CC5)ccc5c4OCO5)ncnc23)C1 (stereo partly drawn) [Example 190, 4-(5-Cyclopropylmethoxy-benzo[1,3]dioxol-4-yl)-5H-pyrrolo[3,2-d]pyrimidine-7-carboxylic acid [1-((S)-2-hydroxy-propionyl)piperidin-3-ylmethyl]-amide]
0.191 nM	O=C(N[C@H]1CC[C@H](C(=O)NC2CC2)CC1)c1c[nH]c2c(-c3c(OCC4CC4)ccc4c3OCO4)ncnc12 [Example 270, trans-4-(5-Cyclopropylmethoxy-benzo[1,3]dioxol-4-yl)-5H-pyrrolo[3,2-d]pyrimidine-7-carboxylic acid (4-cyclopropylcarbamoyl-cyclohexyl)-amide]
0.589 nM	C[C@H](O)C(=O)N1CC[C@@H](NC(=O)c2c[nH]c3c(-c4c(OCC5CC5)ccc5c4OCO5)ncnc23)C1 [Example 181, 4-(5-Cyclopropylmethoxy-benzo[1,3]dioxol-4-yl)-5H-pyrrolo[3,2-d]pyrimidine-7-carboxylic acid [(R)-1-((S)-2-hydroxy-propanoyl)-pyrrolidin-3-yl]amide]
2.63 nM	O=C(CO)N[C@H]1CC[C@@H](NC(=O)c2c[nH]c3c(-c4ccc(F)cc4OCC4CC4)ncnc23)CC1 [Example 214, cis-4-(2-Cyclopropylmethoxy-4-fluoro-phenyl)-5H-pyrrolo[3,2-d]pyrimidine-7-carboxylic acid [4-(2-hydroxy-acetylamino)-cyclohexyl]-amide]
0.832 nM	C[C@H](O)C(=O)N1CCOC(CNC(=O)c2c[nH]c3c(-c4c(OCC5CC5)ccc5c4OCO5)ncnc23)C1 (stereo partly drawn) [Example 194, 4-(5-Cyclopropylmethoxy-benzo[1,3]dioxol-4-yl)-5H-pyrrolo[3,2-d]pyrimidine-7-carboxylic acid [4-((S)-2-hydroxy-propionyl)-morpholin-2-ylmethyl]-amide]
